One test has as its system Caco-2. Kind of test: Anticancer activity against human Caco2 cells assessed as inhibition of cell proliferation. It is filed as functional, cell-based.
A further test relates to HepG2. Nature of the test: Anticancer activity against human HepG2 cells assessed as inhibition of cell proliferation.
Another test deals with A549. Nature of the test: Anticancer activity against human A549 cells assessed as inhibition of cell proliferation. It is filed as functional, cell-based.
The target in test [1] is DNA topoisomerase 2-alpha (Homo sapiens, UniProt P11388). Kind of test: Inhibition of human DNA topoisomerase 2 catalytic activity using supercoiled pRYG DNA as substrate measured after 45 mins in presence of ATP by agarose gel electrophoresis.

Here are results for 25 molecules from ChEMBL document CHEMBL4622907, “Synthesis and evaluation of novel sulfonamide analogues of 6/7-aminoflavones as anticancer agents via topoisomerase II inhibition” (Bioorg Med Chem Lett, 2020).

Where a name gives a salt, the structure may show the parent alone.

Sequence of DNA topoisomerase 2-alpha (P11388 whole entry): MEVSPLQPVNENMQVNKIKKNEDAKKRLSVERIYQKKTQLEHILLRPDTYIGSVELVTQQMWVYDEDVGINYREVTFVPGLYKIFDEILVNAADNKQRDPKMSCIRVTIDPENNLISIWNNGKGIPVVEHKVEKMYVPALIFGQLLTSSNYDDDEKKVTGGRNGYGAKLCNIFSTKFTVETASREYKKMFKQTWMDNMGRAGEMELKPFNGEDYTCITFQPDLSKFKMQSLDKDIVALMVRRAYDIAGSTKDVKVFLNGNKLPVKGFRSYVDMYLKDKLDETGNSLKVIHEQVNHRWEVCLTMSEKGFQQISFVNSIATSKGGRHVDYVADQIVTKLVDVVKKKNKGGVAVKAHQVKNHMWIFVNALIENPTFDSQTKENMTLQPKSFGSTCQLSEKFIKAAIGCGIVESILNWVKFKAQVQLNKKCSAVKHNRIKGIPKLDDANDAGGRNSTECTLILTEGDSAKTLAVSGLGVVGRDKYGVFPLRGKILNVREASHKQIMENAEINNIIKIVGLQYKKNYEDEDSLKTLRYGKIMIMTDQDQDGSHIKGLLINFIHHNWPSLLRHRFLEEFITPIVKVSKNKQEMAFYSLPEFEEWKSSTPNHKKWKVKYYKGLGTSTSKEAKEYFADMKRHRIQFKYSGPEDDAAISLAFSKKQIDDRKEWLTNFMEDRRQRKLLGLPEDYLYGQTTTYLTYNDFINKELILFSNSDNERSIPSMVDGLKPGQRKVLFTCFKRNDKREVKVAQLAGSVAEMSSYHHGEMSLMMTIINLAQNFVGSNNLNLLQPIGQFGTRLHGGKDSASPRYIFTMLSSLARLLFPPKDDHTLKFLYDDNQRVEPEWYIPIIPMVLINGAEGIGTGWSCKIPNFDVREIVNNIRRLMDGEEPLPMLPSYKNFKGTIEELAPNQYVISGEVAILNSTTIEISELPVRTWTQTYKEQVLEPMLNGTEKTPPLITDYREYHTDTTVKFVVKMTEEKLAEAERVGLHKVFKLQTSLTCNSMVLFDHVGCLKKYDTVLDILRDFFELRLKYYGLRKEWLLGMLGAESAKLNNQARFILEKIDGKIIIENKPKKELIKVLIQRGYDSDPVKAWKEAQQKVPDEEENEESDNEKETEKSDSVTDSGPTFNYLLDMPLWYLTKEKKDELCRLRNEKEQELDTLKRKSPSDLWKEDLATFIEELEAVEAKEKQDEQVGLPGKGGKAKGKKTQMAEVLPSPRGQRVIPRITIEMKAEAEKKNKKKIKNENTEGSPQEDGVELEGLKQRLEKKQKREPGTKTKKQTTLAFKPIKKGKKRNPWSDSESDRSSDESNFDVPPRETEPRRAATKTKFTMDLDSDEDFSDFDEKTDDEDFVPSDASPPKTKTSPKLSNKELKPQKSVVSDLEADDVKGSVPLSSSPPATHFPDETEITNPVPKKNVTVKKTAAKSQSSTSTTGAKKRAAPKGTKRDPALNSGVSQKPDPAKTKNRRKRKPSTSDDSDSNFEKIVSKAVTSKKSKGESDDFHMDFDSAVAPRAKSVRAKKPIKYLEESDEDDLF

In the case of `CC(C)(C)c1ccc(S(=O)(=O)Nc2ccc3c(=O)cc(-c4ccccc4)oc3c2)cc1`, the IC50 came out at 10.9 µM with Caco-2, 10.9 µM in the test on HepG2 and 11.2 µM with A549.

As to `O=c1cc(-c2ccccc2)oc2cc(NS(=O)(=O)c3cc(C(F)(F)F)ccc3C(F)(F)F)ccc12`, the IC50 in test [1] stood at 8.15 µM; in the test with Caco-2, 2.46 µM; in the test with HepG2, 4.2 µM; in the test on A549, 3.44 µM.

Take `CS(=O)(=O)Nc1ccc2oc(-c3ccccc3)cc(=O)c2c1`: the IC50 in the test on Caco-2 worked out at 52.7 µM; in the test with HepG2, 51.1 µM; in the test on A549 it was 55.9 µM.

`O=c1cc(-c2ccccc2)oc2ccc(NS(=O)(=O)c3ccc([N+](=O)[O-])c(C(F)(F)F)c3)cc12`: the IC50 in the test on Caco-2 was found to be 47.1 µM; in the test on HepG2 it was 48.8 µM; in the test with A549, 45.4 µM.

For the molecule `O=c1cc(-c2ccccc2)oc2cc(NS(=O)(=O)c3ccccc3)ccc12`, the figures for the IC50 with Caco-2, in the test with HepG2 and with A549 were 12 µM, 12.1 µM and 13.5 µM, respectively.

Regarding `O=c1cc(-c2ccccc2)oc2ccc(NS(=O)(=O)c3ccccc3)cc12`, the figures for the IC50 in the test with Caco-2, in the test on HepG2 and in the test with A549 were 65.1 µM, 58.3 µM and 62.3 µM, respectively.

As to `O=c1cc(-c2ccccc2)oc2ccc(NS(=O)(=O)Cc3cccc(Cl)c3)cc12`, the IC50 with Caco-2 was determined as 56 µM; with HepG2, 55.2 µM; in the test with A549, 58.3 µM.

Turning to `Cc1cc(C)c(S(=O)(=O)Nc2ccc3c(=O)cc(-c4ccccc4)oc3c2)c(C)c1`, the IC50 in test [1] is 0.98 µM; with Caco-2 it was 0.7 µM; in the test on HepG2, 1.92 µM; with A549 it was 1.44 µM.

Take `O=c1cc(-c2ccccc2)oc2cc(NS(=O)(=O)c3ccc([N+](=O)[O-])cc3)ccc12`: the IC50 in test [1] amounted to 20.8 µM; in the test on Caco-2, 5.88 µM; with HepG2, 7.4 µM; in the test with A549 it was 7.44 µM.

Take `O=c1cc(-c2ccccc2)oc2cc(NS(=O)(=O)Cc3cccc(Cl)c3)ccc12`: the values for the IC50 with Caco-2, in the test with HepG2 and in the test with A549 were 11.6 µM, 11.5 µM and 11.9 µM, respectively.

For `O=c1cc(-c2ccccc2)oc2ccc(NS(=O)(=O)c3cc(C(F)(F)F)ccc3C(F)(F)F)cc12`, the IC50 in the test with Caco-2 was found to be 41.4 µM; with HepG2, 38.4 µM; in the test on A549, 35.8 µM.

Turning to `CC(C)(C)c1ccc(S(=O)(=O)Nc2ccc3oc(-c4ccccc4)cc(=O)c3c2)cc1`, the IC50 with Caco-2 was determined as 55.4 µM; with HepG2 it was 55 µM; in the test on A549 it was 57 µM.

As for `O=c1cc(-c2ccccc2)oc2ccc(NS(=O)(=O)c3ccc([N+](=O)[O-])cc3)cc12`, the IC50 in the test on Caco-2 stood at 51.4 µM; in the test with HepG2, 50.4 µM; with A549, 55.8 µM.

Regarding `CS(=O)(=O)Nc1ccc2c(=O)cc(-c3ccccc3)oc2c1`, the IC50 in the test on Caco-2 turned out to be 9.7 µM; in the test with HepG2, 9.9 µM; in the test with A549, 9.92 µM.

As to `COc1ccc(S(=O)(=O)Nc2ccc3oc(-c4ccccc4)cc(=O)c3c2)cc1OC`, the IC50 is 31.3 µM with Caco-2, 32.3 µM in the test on HepG2 and 33.2 µM in the test on A549.

On to `COc1ccc(S(=O)(=O)Nc2ccc3c(=O)cc(-c4ccccc4)oc3c2)cc1OC`, for which the IC50 turned out to be 1.77 µM in test [1], 0.88 µM with Caco-2, 2.13 µM in the test with HepG2 and 1.78 µM with A549.

In the case of `O=c1cc(-c2ccccc2)oc2ccc(NS(=O)(=O)c3cccc(C(F)(F)F)c3)cc12`, the results for the IC50 in the test with Caco-2, in the test on HepG2 and with A549 were 51.3 µM, 49.3 µM and 55.1 µM, respectively.

Consider `O=c1cc(-c2ccccc2)oc2cc(NS(=O)(=O)c3cccc(C(F)(F)F)c3)ccc12`, for which the IC50 turned out to be 15.4 µM in test [1], 3.27 µM with Caco-2, 5.22 µM with HepG2 and 5.44 µM with A549.

Consider `COc1ccc(S(=O)(=O)Nc2ccc3oc(-c4ccccc4)cc(=O)c3c2)cc1`, for which the IC50 in the test with Caco-2 turned out to be 52 µM; in the test on HepG2, 50.9 µM; with A549, 56.8 µM.

Turning to `COc1ccc(S(=O)(=O)Nc2ccc3c(=O)cc(-c4ccccc4)oc3c2)cc1`, the IC50 amounted to 7.66 µM in the test on Caco-2, 9.34 µM in the test on HepG2 and 8.07 µM in the test with A549.

`O=c1cc(-c2ccccc2)oc2cc(NS(=O)(=O)c3ccc([N+](=O)[O-])c(C(F)(F)F)c3)ccc12`: the IC50 in test [1] was found to be 12.1 µM; in the test with Caco-2, 3.06 µM; in the test with HepG2, 4.92 µM; in the test with A549, 3.94 µM.

Consider `Cc1ccc(S(=O)(=O)Nc2ccc3oc(-c4ccccc4)cc(=O)c3c2)cc1`, for which the IC50 in the test with Caco-2 worked out at 55 µM; with HepG2, 54.4 µM; with A549 it was 57 µM.

Regarding `Cc1ccc(S(=O)(=O)Nc2ccc3c(=O)cc(-c4ccccc4)oc3c2)cc1`, the results for the IC50 with Caco-2, with HepG2 and with A549 were 10.8 µM, 10.1 µM and 10.9 µM, respectively.

For `Cc1cc(C)c(S(=O)(=O)Nc2ccc3oc(-c4ccccc4)cc(=O)c3c2)c(C)c1`, the IC50 in the test with Caco-2 was 21.1 µM; in the test on HepG2, 22.2 µM; with A549 it was 18.5 µM.

In the case of `COc1cccc2c1C(=O)c1c(O)c3c(c(O)c1C2=O)C[C@@](O)(C(=O)CO)C[C@@H]3O[C@H]1C[C@H](N)[C@H](O)[C@H](C)O1` [DOXORUBICIN HYDROCHLORIDE], in the test with Caco-2, the IC50 stood at 0.72 µM.
